Assay results published in article PMC11146149 (RSC Advances, 2024).
One block for each compound: values may come before it.

Tests used:
Assay type in all cases: biochemical
COX-1 = target: T1, COX-1 (Ovis aries, UniProt P05979); experiment: In vitro COX inhibitory assay; details: for Inhibition of COX-1 in comparison to indomethacin: result in words; for inhibition at 50 µg/mL / inhibition at 100 µg/mL / inhibition at 150 µg/mL: read-out: Inhibition of COX-1 (%)
T1 sequence (P05979 25-600): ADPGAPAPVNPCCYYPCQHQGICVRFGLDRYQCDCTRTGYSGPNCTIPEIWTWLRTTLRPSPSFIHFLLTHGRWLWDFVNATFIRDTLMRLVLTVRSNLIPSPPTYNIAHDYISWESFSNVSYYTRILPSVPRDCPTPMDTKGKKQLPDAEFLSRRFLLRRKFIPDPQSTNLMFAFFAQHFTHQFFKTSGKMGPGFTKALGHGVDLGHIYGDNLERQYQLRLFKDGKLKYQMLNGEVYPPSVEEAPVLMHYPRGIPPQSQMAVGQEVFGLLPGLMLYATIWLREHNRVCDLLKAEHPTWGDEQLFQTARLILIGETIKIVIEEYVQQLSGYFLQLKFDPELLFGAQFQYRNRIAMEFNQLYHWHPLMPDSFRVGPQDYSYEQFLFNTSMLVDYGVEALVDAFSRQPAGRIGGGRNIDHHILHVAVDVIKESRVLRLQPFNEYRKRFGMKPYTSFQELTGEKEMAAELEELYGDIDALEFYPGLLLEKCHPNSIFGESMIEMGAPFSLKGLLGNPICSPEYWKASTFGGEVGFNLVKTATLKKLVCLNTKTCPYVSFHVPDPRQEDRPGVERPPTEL

egg albumin = target: T2, egg albumin (Gallus gallus, UniProt P01012); experiment: Inhibition of protein denaturation method; details: read-out: Inhibition of protein denaturation (%)
T2 sequence (P01012 2-386): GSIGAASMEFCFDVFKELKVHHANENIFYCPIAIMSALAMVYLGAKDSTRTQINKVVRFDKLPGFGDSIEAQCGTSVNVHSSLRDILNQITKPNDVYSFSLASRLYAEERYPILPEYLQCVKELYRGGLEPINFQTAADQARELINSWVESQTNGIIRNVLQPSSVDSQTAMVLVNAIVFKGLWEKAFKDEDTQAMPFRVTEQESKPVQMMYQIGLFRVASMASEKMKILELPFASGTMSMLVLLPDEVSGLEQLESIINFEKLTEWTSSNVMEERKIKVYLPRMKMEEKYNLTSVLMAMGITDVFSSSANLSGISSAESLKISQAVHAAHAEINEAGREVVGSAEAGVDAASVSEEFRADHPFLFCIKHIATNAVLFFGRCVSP

COX-2 = target: T3, COX-2 (Homo sapiens, UniProt P35354); experiment: In vitro COX inhibitory assay; details: for Inhibition of COX-2 in comparison to indomethacin: result in words; for Selectivity index: COX-1/COX-2 selectivity index; for inhibition at 50 µg/mL / inhibition at 100 µg/mL / inhibition at 150 µg/mL: read-out: Inhibition of COX-2 (%)
T3 sequence (P35354 18-604): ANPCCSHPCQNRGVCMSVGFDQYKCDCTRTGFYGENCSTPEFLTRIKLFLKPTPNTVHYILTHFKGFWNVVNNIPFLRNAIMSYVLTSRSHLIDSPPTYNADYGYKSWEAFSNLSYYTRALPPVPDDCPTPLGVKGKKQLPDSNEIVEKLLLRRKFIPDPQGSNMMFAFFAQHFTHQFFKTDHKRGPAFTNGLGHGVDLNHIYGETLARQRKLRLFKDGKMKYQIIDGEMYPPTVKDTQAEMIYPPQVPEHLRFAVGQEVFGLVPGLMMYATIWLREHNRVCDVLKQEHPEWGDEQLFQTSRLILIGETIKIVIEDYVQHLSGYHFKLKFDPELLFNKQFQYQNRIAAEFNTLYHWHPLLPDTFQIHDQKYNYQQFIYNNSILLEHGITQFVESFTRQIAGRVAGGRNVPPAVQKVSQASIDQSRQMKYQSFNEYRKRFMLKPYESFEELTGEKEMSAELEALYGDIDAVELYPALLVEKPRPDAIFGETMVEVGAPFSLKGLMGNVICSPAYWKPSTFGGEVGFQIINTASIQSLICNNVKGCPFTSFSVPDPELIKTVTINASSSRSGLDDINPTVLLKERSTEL

SMILES: NC1=NC(/C=C/c2ccccc2)n2nc(C(=O)Nc3ccc(S(N)(=O)=O)cc3)nc2N1 (centres unmarked) [Compound 6, (E)-5-Amino-7-styryl-N-(4-sulfamoylphenyl)-4,7-dihydro-[1,2,4]-triazolo[1,5-a][1,3,5]triazine-2-carboxamide]
Inhibition of COX-1 in comparison to indomethacin (COX-1): less inhibition | inhibition at 50 µg/mL (egg albumin): 53.7% | inhibition at 100 µg/mL (egg albumin): 58.4% | inhibition at 200 µg/mL (egg albumin): 67.4% | inhibition at 300 µg/mL (egg albumin): 72.1% | Inhibition of COX-2 in comparison to indomethacin (COX-2): less inhibition

SMILES: NC1=NC(c2ccccc2O)n2nc(C(=O)Nc3ccc(S(N)(=O)=O)cc3)nc2N1 (centres unmarked) [Compound 11, 5-Amino-7-(2-hydroxyphenyl)-N-(4-sulfamoylphenyl)-4,7-dihydro-[1,2,4]-triazolo[1,5-a][1,3,5]triazine-2-carboxamide]
IC50 (COX-1): 141 µM | inhibition at 50 µg/mL (COX-1): 41.28 ± 0.04% | inhibition at 100 µg/mL (COX-1): 63.43 ± 0.04% | inhibition at 150 µg/mL (COX-1): 80.12 ± 0.03% | inhibition at 50 µg/mL (egg albumin): 83.4% | inhibition at 100 µg/mL (egg albumin): 88.2% | inhibition at 200 µg/mL (egg albumin): 93.9% | inhibition at 300 µg/mL (egg albumin): 98.2% | IC50 (COX-2): 96.7 µM | Selectivity index (COX-2): 1.46 | inhibition at 50 µg/mL (COX-2): 60.3 ± 0.05% | inhibition at 100 µg/mL (COX-2): 81.99 ± 0.01% | inhibition at 150 µg/mL (COX-2): 98.97 ± 0.06%

SMILES: NC1=NC(c2cccc(O)c2)n2nc(C(=O)Nc3ccc(S(N)(=O)=O)cc3)nc2N1 (centres unmarked) [Compound 13, 5-Amino-7-(3-hydroxyphenyl)-N-(4-sulfamoylphenyl)-4,7-dihydro-[1,2,4]-triazolo[1,5-a][1,3,5]triazine-2-carboxamide]
Inhibition of COX-1 in comparison to indomethacin (COX-1): less inhibition | inhibition at 50 µg/mL (egg albumin): 55% | inhibition at 100 µg/mL (egg albumin): 59.8% | inhibition at 200 µg/mL (egg albumin): 65.7% | inhibition at 300 µg/mL (egg albumin): 73.6% | Inhibition of COX-2 in comparison to indomethacin (COX-2): less inhibition

SMILES: NC1=NC(c2cccc3ccccc23)n2nc(C(=O)Nc3ccc(S(N)(=O)=O)cc3)nc2N1 (centres unmarked) [Compound 10, 5-Amino-7-(naphthalen-1-yl)-N-(4-sulfamoylphenyl)-4,7-dihydro-[1,2,4]-triazolo[1,5-a][1,3,5]triazine-2-carboxamide]
Inhibition of COX-1 in comparison to indomethacin (COX-1): less inhibition | inhibition at 50 µg/mL (egg albumin): 55% | inhibition at 100 µg/mL (egg albumin): 59.7% | inhibition at 200 µg/mL (egg albumin): 65.5% | inhibition at 300 µg/mL (egg albumin): 73.4% | Inhibition of COX-2 in comparison to indomethacin (COX-2): less inhibition

SMILES: COc1ccc(C2N=C(N)Nc3nc(C(=O)Nc4ccc(S(N)(=O)=O)cc4)nn32)cc1 (centres unmarked) [Compound 9, 5-Amino-7-(4-methoxyphenyl)-N-(4-sulfamoylphenyl)-4,7-dihydro-[1,2,4]-triazolo[1,5-a][1,3,5]triazine-2-carboxamide]
Inhibition of COX-1 in comparison to indomethacin (COX-1): less inhibition | inhibition at 50 µg/mL (egg albumin): 51% | inhibition at 100 µg/mL (egg albumin): 55.8% | inhibition at 200 µg/mL (egg albumin): 61.6% | inhibition at 300 µg/mL (egg albumin): 69.5% | Inhibition of COX-2 in comparison to indomethacin (COX-2): less inhibition

SMILES: NC1=NC(c2ccco2)n2nc(C(=O)Nc3ccc(S(N)(=O)=O)cc3)nc2N1 (centres unmarked) [Compound 4, 5-Amino-7-(furan-2-yl)-N-(4-sulfamoylphenyl)-4,7-dihydro-[1,2,4]-triazolo[1,5-a][1,3,5]triazine-2-carboxamide]
IC50 (COX-1): 99.5 µM | inhibition at 50 µg/mL (COX-1): 62.43 ± 0.01% | inhibition at 100 µg/mL (COX-1): 80.64 ± 0.01% | inhibition at 150 µg/mL (COX-1): 90.02 ± 0.02% | inhibition at 50 µg/mL (egg albumin): 90.3% | inhibition at 100 µg/mL (egg albumin): 95% | inhibition at 200 µg/mL (egg albumin): 99.2% | inhibition at 300 µg/mL (egg albumin): 91.3% | IC50 (COX-2): 69 µM | Selectivity index (COX-2): 1.44 | inhibition at 50 µg/mL (COX-2): 90.03 ± 0.02% | inhibition at 100 µg/mL (COX-2): 95.11 ± 0.01% | inhibition at 150 µg/mL (COX-2): 98.92 ± 0.02%

SMILES: Cc1ccccc1C1N=C(N)Nc2nc(C(=O)Nc3ccc(S(N)(=O)=O)cc3)nn21 (centres unmarked) [Compound 5, 5-Amino-N-(4-sulfamoylphenyl)-7-(o-tolyl)-4,7-dihydro-[1,2,4]-triazolo[1,5-a][1,3,5]triazine-2-carboxamide]
IC50 (COX-1): 180 µM | inhibition at 50 µg/mL (COX-1): 32.51 ± 0.03% | inhibition at 100 µg/mL (COX-1): 56.64 ± 0.01% | inhibition at 150 µg/mL (COX-1): 74.32 ± 0.03% | inhibition at 50 µg/mL (egg albumin): 59.7% | inhibition at 100 µg/mL (egg albumin): 64.5% | inhibition at 200 µg/mL (egg albumin): 70.3% | inhibition at 300 µg/mL (egg albumin): 78.2% | IC50 (COX-2): 97.7 µM | Selectivity index (COX-2): 1.84 | inhibition at 50 µg/mL (COX-2): 60.01 ± 0.05% | inhibition at 100 µg/mL (COX-2): 67.25 ± 0.02% | inhibition at 150 µg/mL (COX-2): 75.31 ± 0.01%

Continued, values first:

Inhibition of COX-1 in comparison to indomethacin (COX-1): less inhibition | inhibition at 50 µg/mL (egg albumin): 54.7% | inhibition at 100 µg/mL (egg albumin): 59.5% | inhibition at 200 µg/mL (egg albumin): 65.3% | inhibition at 300 µg/mL (egg albumin): 73.2% | Inhibition of COX-2 in comparison to indomethacin (COX-2): less inhibition
SMILES: NC1=NC(C2N=C(N)Nc3nc(C(=O)Nc4ccc(S(N)(=O)=O)cc4)nn32)n2nc(C(=O)Nc3ccc(S(N)(=O)=O)cc3)nc2N1 (centres unmarked) [Compound 7, 5,5′-Diamino-N2,N2′-bis(4-sulfamoylphenyl)-4,4′,7,7′-tetrahydro-[7,7′-bi[1,2,4]triazolo[1,5-a][1,3,5]triazine]-2,2′-dicarboxamide]

IC50 (COX-1): 192 µM | inhibition at 50 µg/mL (COX-1): 28.64 ± 0.04% | inhibition at 100 µg/mL (COX-1): 53.24 ± 0.03% | inhibition at 150 µg/mL (COX-1): 70.68 ± 0.04% | inhibition at 50 µg/mL (egg albumin): 55.8% | inhibition at 100 µg/mL (egg albumin): 60.5% | inhibition at 200 µg/mL (egg albumin): 66.3% | inhibition at 300 µg/mL (egg albumin): 74.2% | IC50 (COX-2): 92.9 µM | Selectivity index (COX-2): 2.06 | inhibition at 50 µg/mL (COX-2): 59.1 ± 0.01% | inhibition at 100 µg/mL (COX-2): 80.98 ± 0.02% | inhibition at 150 µg/mL (COX-2): 98.4 ± 0.02%
SMILES: CN(C)c1ccc(C2N=C(N)Nc3nc(C(=O)Nc4ccc(S(N)(=O)=O)cc4)nn32)cc1 (centres unmarked) [Compound 12, 5-Amino-7-(4-(dimethylamino)phenyl)-N-(4-sulfamoylphenyl)-4,7-dihydro-[1,2,4]-triazolo[1,5-a][1,3,5]triazine-2-carboxamide]

IC50 (COX-1): 186 µM | inhibition at 50 µg/mL (COX-1): 30.12 ± 0.02% | inhibition at 100 µg/mL (COX-1): 55.41 ± 0.05% | inhibition at 150 µg/mL (COX-1): 71.23 ± 0.05% | inhibition at 50 µg/mL (egg albumin): 59.5% | inhibition at 100 µg/mL (egg albumin): 64.2% | inhibition at 200 µg/mL (egg albumin): 70% | inhibition at 300 µg/mL (egg albumin): 77.9% | IC50 (COX-2): 89.3 µM | Selectivity index (COX-2): 2.07 | inhibition at 50 µg/mL (COX-2): 62.64 ± 0.01% | inhibition at 100 µg/mL (COX-2): 64.78 ± 0.01% | inhibition at 150 µg/mL (COX-2): 71.61 ± 0.01%
SMILES: NC1=NC(c2ccccc2Cl)n2nc(C(=O)Nc3ccc(S(N)(=O)=O)cc3)nc2N1 (centres unmarked) [Compound 8, 5-Amino-7-(2-chlorophenyl)-N-(4-sulfamoylphenyl)-4,7-dihydro-[1,2,4]-triazolo[1,5-a][1,3,5]triazine-2-carboxamide]
